PMC6891666, “Identifying Phlorofucofuroeckol-A as a Dual Inhibitor of Amyloid-β25-35 Self-Aggregation and Insulin Glycation: Elucidation of the Molecular Mechanism of Action” (Marine Drugs, 2019)
Where two headings read alike, the source gives them in different places.

Columns and labels:
bovine insulin [1] = target: T1, bovine insulin (Bos taurus, UniProt P01317); assay: D-glucose-induced non-enzymatic insulin glycation assay; type: biochemical
T1 construct: Phe1 and Asn3 in chain B and Ser12, Gln15, Glu17, and Asn18 in chain A of the insulin; purchased Sigma-Aldrich; host or cells: bovine pancreas
Protocol: (§1) Glycated bovine insulin was observed by fluorescence spectroscopy because AGEs are marked by a typical fluorescence emission at 410 nm (excitation at 320 nm). To verify our experimental condition, we used vanillin as a negative control for D-ribose-induced protein glycation and rutin as a positive control for d-glucose-induced protein glycation.
(§2) The insulin from bovine pancreas was dissolved in third grade distilled water to a concentration of 6 mg/mL and acidified to pH 2.4 using phosphoric acid to produce monomeric insulin. Then the insulin solution was neutralized to pH 7.0 using 10 M NaOH. Non-enzymatic glycation of insulin was initiated by mixing the insulin solution, 0.5 M D-ribose (or 1.5 M D-glucose) in 50 mM NaH2PO4 buffer (pH 7.0), and 10% dimethyl sulfoxide (DMSO) or the test phlorotannins in a 1:8:1 ratio and incubating the mixture at 37 °C for 6 days (2 weeks for D-glucose induced insulin glycation). Vanillin was used as a negative control for D-ribose induced insulin glycation, whereas rutin was used as a positive control for D-glucose induced insulin glycation. After incubation, the reaction mixture was measured at an excitation wavelength of 320 nm and emission wavelength of 410 nm using a fluorescence microplate reader (Gemini XPS).

bovine insulin [2] = target: T1, bovine insulin; assay: D-ribose-induced non-enzymatic insulin glycation assay; type: biochemical; conditions: for inhibitory activity on D-ribose-induced insulin glycation: at 100 µM
Protocol: as §1, §2

[3] = test system: lipid peroxidation in rat brain homogenates; assay: Lipid peroxidation (TBARS) assay in whole rat brain homogenates; type: biochemical; conditions: Fe2+-treated rat brain homogenates, MDA level, mean ± SD, n = 3
Protocol: Whole rat brain homogenates were prepared from freshly killed Sprague Dawley rats (male, 6-months old) and provided by the Aging Tissue Bank of Pusan National University. One g of whole rat brain was homogenized in 10 mL of cold 20 mM sodium phosphate buffer containing 140 mM KCl (pH 7.4) and centrifuged at 1300× g for 15 min.
A TBA reactive species (TBARS) assay was used to evaluate the antioxidant activity of the phlorotannins in the rat brain homogenates. An aliquot of the supernatant fraction of the homogenates was mixed with phlorotannins dissolved in 10% DMSO, freshly prepared ferric sulfate (250 μM), and distilled water in a 10:5:3:12 ratio, and then the reaction mixture was incubated at 37 °C for 1 h. The reaction was completed by adding a color reagent containing 0.8% TBA, 8.1% SDS, and a 7.5% (final concentration) acetic acid-NaOH solution (pH 3.4) in a 2:1:2 ratios. The mixture was boiled in a water bath for 1 h. After cooling, the reaction mixture was mixed with an equal volume of n-butanol and centrifuged at 1300× g for 10 min. The absorbance of the upper layer was measured at 532 nm using a spectrophotometer (Molecular Devices). The formation of TBARS was expressed as MDA nmol/mg protein using 1,1,3,3-tetramethoxypropane as a standard. Trolox was used as a positive control.

Aβ25-35 = target: T2, Aβ25-35 (Homo sapiens, UniProt P05067); assay: Aβ25-35 self-aggregation assay (thioflavin-T fluorescence); type: biochemical; conditions: for inhibition at 10 µM: read-out: inhibition of Aβ25-35 self-aggregation
T2 construct: Gly1 and Phe1 for insulin) and C-terminals (Met35 for Aβ25-35; purchased Sigma-Aldrich
Protocol: A monomeric Aβ25-35 solution was prepared using the method of Naldi and coworkers. A 2.5 μL aliquot of various concentrations of the tested phlorotannins in 50 mM phosphate buffer (pH 7.4) with 100 mM NaCl was added to 72.5 μL of Aβ25-35 sample (100 μM), and the mixture was incubated at 4 °C for 1 day. After incubation, 25 μM thioflavin T in 50 mM glycine-NaOH buffer (pH 8.5) was added to the reaction mixture. Fluorescence emission intensity was monitored at 490 nm (λexc = 446 nm) using a fluorescence microplate reader (Gemini XPS, Molecular Devices, Sunnyvale, CA, USA).

[4] = parameters: method as in PMID 30744179; conditions: pharmacokinetic parameter prediction study; cited from earlier work
[5] = rats, intravenous injection; cited from earlier work
[6] = bovine insulin, D-glucose, 2 weeks incubation, mean ± SD, n = 3, read-out: IC50 D-Glucose-Induced Insulin Glycation
[7] = bovine insulin, D-ribose, mean ± SD, n = 3, read-out: IC50 D-Ribose-Induced Insulin Glycation
[8] = at 10 μM, thioflavin-T fluorescence
[9] = thioflavin-T fluorescence, Aβ25-35 100 μM, mean ± SD, n = 3, read-out: IC50 Aβ25-35 Aggregation

T1 sequence (P01317 25-54 limits assumed): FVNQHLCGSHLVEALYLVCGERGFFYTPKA
T1 sequence (P01317 85-105 limits assumed): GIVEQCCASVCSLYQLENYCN

IC50 (bovine insulin [1]; [6]) [µM]	EC50 [3] [µM]	IC50 (bovine insulin [2]; [7]) [µM]	inhibition at 10 µM (Aβ25-35; [8]) [%]	IC50 (Aβ25-35; [9]) [µM]	Compound	further results
43.5 ± 2.38	11 ± 0.16	29.5 ± 0.53	80	6.18 ± 0.18	Oc1cc(O)cc(Oc2c(O)cc(O)c3c2Oc2c(O)cc4oc5c(Oc6cc(O)cc(O)c6)c(O)cc(O)c5c4c2O3)c1 [Phlorofucofuroeckol-A, phlorofucofuroeckol-A]	–
–	49 ± 3.5	–	–	–	Cc1c(C)c2c(c(C)c1O)CCC(C)(C(=O)O)O2 (stereo not shown) [Trolox, reference compound]	–
> 100	38.6 ± 1.16	259 ± 10.8	34.5	34.4 ± 1.11	Oc1cc(O)cc(Oc2c(O)cc(O)c3c2Oc2c(O)cc(O)cc2O3)c1 [Eckol, eckol]	CNS penetration [4]: penetrates the CNS moderately
–	–	> 500	–	–	COc1cc(C=O)ccc1O [Vanillin, vanillin, reference compound]	activity on D-ribose-induced insulin glycation (bovine insulin [2]; at 500 µM, negative control): no activity
> 100	> 75	> 100	–	> 100	Oc1cc(O)cc(O)c1 [Phloroglucinol, phloroglucinol]	inhibitory activity on D-ribose-induced insulin glycation (bovine insulin [2]): weak or no inhibitory activity; inhibition at 100 µM (bovine insulin [1]; at 100 µM): 40%; inhibitory effect on Aβ25-35 self-aggregation (Aβ25-35; at 50 μM): no inhibitory effect

Further lines, the compound ahead of its results:

Compound	IC50 (bovine insulin [1]; [6]) [µM]	EC50 [3] [µM]	IC50 (bovine insulin [2]; [7]) [µM]	inhibition at 10 µM (Aβ25-35; [8]) [%]	IC50 (Aβ25-35; [9]) [µM]	further results
C[C@@H]1O[C@@H](OC[C@H]2O[C@@H](Oc3c(-c4ccc(O)c(O)c4)oc4cc(O)cc(O)c4c3=O)[C@H](O)[C@@H](O)[C@@H]2O)[C@H](O)[C@H](O)[C@H]1O [Rutin, rutin, reference compound]	5.19 ± 1.35	–	–	–	–	–
Oc1cc(O)c2oc3cc(O)c4oc5cc(O)cc(O)c5oc4c3oc2c1 [Dioxinodehydroeckol, dioxinodehydroeckol]	–	12.4 ± 1.5	–	–	–	IC50 (bovine insulin [2]): > 100 µM; inhibitory activity on D-ribose-induced insulin glycation (bovine insulin [2]): weak or no inhibitory activity; IC50 (bovine insulin [1]): > 100 µM; IC50 (Aβ25-35): 8.31 ± 0.23 µM; inhibition at 10 µM (Aβ25-35): 66.1%
Oc1cc(O)cc(Oc2c(O)cc(O)c3c2Oc2c(O)cc(Oc4c(O)cc(Oc5c(O)cc(O)c6c5Oc5c(O)cc(O)cc5O6)cc4O)cc2O3)c1 [Dieckol, dieckol]	> 100	13.5 ± 0.38	63.7 ± 3.83	67	7.93 ± 0.16	BBB passage [5]: effectively passed the BBB
